Consider 21 molecules from US6989435B2, “Compounds and methods to inhibit or augment an inflammatory response” (Cambridge University Technical Services Ltd., priority 1997, dated 2006).

Marks after values point to notes of the source that are not given here. Positions of bridges follow the written chain, without caps; N, C: chain ends. Non-standard residues stand in square brackets, D forms with d. Residues, ends and D or L forms follow the SMILES beside them. No end group written: not given here.

Assay [1] relates to chemokine-induced THP-1 migration (MCP-1, MIP1α, IL8, SDF1α). In words: Trans-well THP-1 migration assay, across the chemokines tested. It is filed as cell-based, human. To be noted: for CC SPECIFICITY: Table 7, average inhibitory ED50 versus SDF1 and IL8 divided by average inhibitory ED50 versus MCP-1 and MIP1α; for selectivity ratio (CC versus CXC chemokines): >1 = greater inhibition of CC chemokines, <1 = of CXC chemokines. On the procedure:
To determine whether an agent inhibits a chemokine-induced activity, such as macrophage recruitment, varying amounts of the agent are mixed with cells in the presence of a known chemoattractant. […] Chemokine (such as MCP-1, MIP1α, IL8 or SDF-1α), at a concentration known to cause significant migration of THP-1 cells in the trans-well migration assay, is placed in the lower compartment (FIG. 1). […] After incubation, the cells are gently removed from the top of the filter with a pipette, 20 μl of 20 mM EDTA in simple PBS is added into each top well, and incubated for 20 minutes at 4° C. The filter is carefully flushed with media using a gentle flow, and removed. […] The media is carefully aspirated from each well, and the converted dye is solubilized by 20 μl of DMSO. Absorbance of converted dye is measured at a wavelength of 595 nm using an ELISA plate reader. The number of migrated cells in each well is then determined by interpolation of the standard curve (see also Imai et al., J. Biol. Chem., 272, 15036 (1997)). […] The framed filter was aligned with the holes in the corner of the filter frame and placed over the wells. Five×10^4 THP-1 cells in 25 μl of RPMI-1640 culture media were added to the upper compartment. Peptides were dissolved in Milli Q water and then serially diluted in culture medium. In most cases, the serially diluted peptides were added to the upper compartment of the chemotaxis chamber. […] After incubation, the cells were gently removed from the top of the filter with a pipette, 20 μl of 20 mM EDTA in PBS was added into each top well, and the mixture was incubated for 20 minutes at 4° C. The filter was then carefully flushed with media using a gentle flow, and removed. […] The media was carefully aspirated from each well, and the converted dye was solubilized by 20 μl of DMSO. Absorbance of converted dye was measured at a wavelength of 595 nm using an ELISA plate reader. […] Representative chemokines included a beta-chemokine (“CC”), MIP-1α, and two alpha-chemokines (“CXC”), IL-8 and SDF-1α. […]

Assay [2] has as its system IL8 induced THP-1 migration. As to the kind of experiment: Trans-well THP-1 migration assay, IL8 as chemoattractant. To be noted: THP-1 migration. It is filed as cell-based, human. On the procedure:
(§1) FIG. 1 is a schematic of the trans-well migration assay. In most experiments, the peptide (wavy line) is added to the upper well with about 50,000 cells (O). The upper and lower wells are separated by a 5 μm or 8 μm pore size PVP-free membrane (- - - -). Chemokine (●) is added to the lower well. After 4 hours, the number of cells that have migrated through the membrane are measured (◯ in lower well).
(§2) To determine whether an agent inhibits a chemokine-induced activity, such as macrophage recruitment, varying amounts of the agent are mixed with cells in the presence of a known chemoattractant. For example, a range of known concentrations of an agent, e.g., a chemokine peptide, is incubated with a defined number (e.g., 10^4-10^6) of human THP-1 monocyte cells in individual wells of the top compartment of a trans-well plate. […] A standard curve consisting of a two-fold dilution series of THP-1 cells (in 29 μl) is prepared to accurately quantify the number of cells that have migrated. […] Absorbance of converted dye is measured at a wavelength of 595 nm using an ELISA plate reader. The number of migrated cells in each well is then determined by interpolation of the standard curve (see also Imai et al., J. Biol. Chem., 272, 15036 (1997)). […]

Assay [3] deals with T1, Duffy Antigen Receptor for Chemokines (DARC) (Homo sapiens, UniProt Q16570).
T1 sequence (Q16570 1-336): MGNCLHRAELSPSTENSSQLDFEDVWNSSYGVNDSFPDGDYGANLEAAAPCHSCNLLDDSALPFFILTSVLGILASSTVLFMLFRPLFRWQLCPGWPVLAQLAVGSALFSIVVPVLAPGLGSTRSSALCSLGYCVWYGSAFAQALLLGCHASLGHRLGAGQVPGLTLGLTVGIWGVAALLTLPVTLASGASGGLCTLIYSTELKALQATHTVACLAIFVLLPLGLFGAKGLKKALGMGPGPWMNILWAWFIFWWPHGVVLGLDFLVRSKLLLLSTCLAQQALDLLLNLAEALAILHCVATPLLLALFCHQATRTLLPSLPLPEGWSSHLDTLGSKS
As to the kind of experiment: DARC binding: competition with 125I-labeled MCP-1 on red blood cells. To be noted: for DUFFY SELECTIVITY: estimated ka for binding to red blood cells divided by average inhibitory ED50 versus each of the chemokines.

Assay [4] concerns MCP-1 induced THP-1 migration. As to the kind of experiment: Trans-well THP-1 migration assay, MCP-1 as chemoattractant. It is filed as cell-based, human. To be noted: for IC50: derivatives of leu4ile11peptide 3, read-out: MCP-1 inhibitory activity in the THP-1 transwell assay. On the procedure: as §1
To determine whether an agent inhibits a chemokine-induced activity, such as macrophage recruitment, varying amounts of the agent are mixed with cells in the presence of a known chemoattractant. For example, a range of known concentrations of an agent, e.g., a chemokine peptide, is incubated with a defined number (e.g., 10^4-10^6) of human THP-1 monocyte cells in individual wells of the top compartment of a trans-well plate. Chemokine (such as MCP-1, MIP1α, IL8 or SDF-1α), at a concentration known to cause significant migration of THP-1 cells in the trans-well migration assay, is placed in the lower compartment (FIG. 1). Cells are then incubated at 37° C. for a period sufficient to allow migration, e.g., 4 hours. After incubation, the cells are gently removed from the top of the filter with a pipette, 20 μl of 20 mM EDTA in simple PBS is added into each top well, and incubated for 20 minutes at 4° C. The filter is carefully flushed with media using a gentle flow, and removed. A standard curve consisting of a two-fold dilution series of THP-1 cells (in 29 μl) is prepared to accurately quantify the number of cells that have migrated. Migrated cells are stained with 3 μl of MTT stock dye solution which is added directly into each well (5 mg/ml in RPMI-1640 without phenol red, Sigma Chemical Co.) and incubated at 37° C. for 4 hours. The media is carefully aspirated from each well, and the converted dye is solubilized by 20 μl of DMSO. Absorbance of converted dye is measured at a wavelength of 595 nm using an ELISA plate reader. The number of migrated cells in each well is then determined by interpolation of the standard curve (see also Imai et al., J. Biol. Chem., 272, 15036 (1997)).
Any method suitable for counting cells can be used, for example, counting with a hemocytometer, incubation of the cells with MTT (see above), or FACS analysis. A negative control assay is also performed, using TGF-β or another non-chemokine chemoattractant (e.g., IL1β or TNFα). To assess whether the agent is cytotoxic, the same concentrations of agent are incubated with THP-1 cells. Agents which 1) are not cytotoxic at levels which inhibit migration, 2) are ineffective at inhibiting the negative control-induced migration, and 3) reduce or inhibit chemokine-induced THP-1 migration, are agents which fall within the scope of the invention.
For this assay, THP-1 cells were maintained at a density of 4×10^5 cells per ml in RPMI-1640 supplemented with 10% fetal calf serum+20 μM 2-mercaptoethanol. Chemotaxis was induced in a 96-well disposable chemotaxis chamber fitted with a […] polycarbonate filter (PVP free, ChemoTX, Neuroprobe Inc., Cabin John). Twenty-nine μl of chemoattractant (recombinant human chemokine; 50 ng/ml, i.e., 5.9 nM) or control (100 ng/ml TGFβ) was added to the lower compartment of each well. The framed filter was aligned with the holes in the corner of the filter frame and placed over the wells. Five×10^4 THP-1 cells in 25 μl of RPMI-1640 culture media were added to the upper compartment. Peptides were dissolved in Milli Q water and then serially diluted in culture medium. In most cases, the serially diluted peptides were added to the upper compartment of the chemotaxis chamber. The chamber was incubated at 37° C. in a humidified atmosphere of 5% CO2 for 4 hours.
After incubation, the cells were gently removed from the top of the filter with a pipette, 20 μl of 20 mM EDTA in PBS was added into each top well, and the mixture was incubated for 20 minutes at 4° C. The filter was then carefully flushed with media using a gentle flow, and removed. […]

For assay [5], the system named is SDF-1α induced THP-1 migration. In words: Trans-well THP-1 migration assay, SDF-1α as chemoattractant. It is filed as cell-based, human. To be noted: THP-1 migration. As for the experimental part: as §1, §2

For the molecule GGR [reference compound], in assay [1], the “inhibition of THP-1 cell migration induced by MCP-1, MIP1α, IL-8 and SDF1α, in words” value (shortened to “inhibition … IL-8 and SDF1α, in words”) is “None of these significantly inhibited”.

Turning to KEN [cognate tripeptide from IL8], the “CC SPECIFICITY” value in assay [1] is <0.1. Further, in assay [2], the “inhibition of IL8, in words” value is “specific and potent inhibitor”.

As to CADPKQKWVQ [Peptide 3[3-12]], in assay [1], the “CC SPECIFICITY” value was determined as 1.2. Further, the “DUFFY SELECTIVITY” value in assay [3] (Table 7) is given as 1.21.

By Kd is commonly meant the free concentration of one partner at which half of the binding sites on the other are occupied at equilibrium, for simple one-to-one binding. Read a low Kd as tighter binding. Turning to DYFETSSQCSKPGV [Pep2[MIP1α]], the Kd in assay [3] was > 50 µM. The “DUFFY SELECTIVITY (peptide 2 family)” value in assay [3] (Table 7, ka for binding to red blood cells divided by the ka for binding THP-1 cells) is recorded as >100^d.

For “-CQVWKQKPDA C- ([dC][dQ][dV][dW][dK][dQ][dK][dP][dD][dA][dC]; disulfide 1-11) [CRD-Cys13pep3[3-12]]”, the “DUFFY SELECTIVITY” value in assay [3] (Table 7) is listed as 8.82.

Take RGD [reference compound]: the “inhibition … IL-8 and SDF1α, in words” value in assay [1] is recorded as “None of these significantly inhibited”.

Consider WIQ, for which the “CC SPECIFICITY” value in assay [1] was determined as 1.0.

On to “CQVWKQKPDAC [LRD-Cys13leu4ile11pep3[3-12]]”, for which the “DUFFY SELECTIVITY” value in assay [3] (Table 7) is 4.59. Moreover, the IC50 in assay [4] was in the range of 0.2 to 0.4 µM.

In the case of KLK [cognate tripeptide from SDF1], the “CC SPECIFICITY” value in assay [1] is given as <0.1. In assay [5], the “inhibition of SDF1, in words” value is “specific and potent inhibitor”.

As to EICADPSQKWVQ [Ser7peptide 3], in assay [1], the “selectivity ratio (CC versus CXC chemokines)” value (“selectivity ratio” for short) is 0.5 and the “CC SPECIFICITY” value is given as 0.5. In addition, the “DUFFY SELECTIVITY” value in assay [3] (Table 7) is listed as 2.00.

As to EICADPKQKWIQ [Ile11peptide 3], in assay [1], the “selectivity ratio” value worked out at 0.9 and the “CC SPECIFICITY” value is given as 0.9.

Consider EICADPSEEWVQ [Ser7Glu8Glu9pep 3], for which the “CC SPECIFICITY” value in assay [1] was determined as 1.6. The “DUFFY SELECTIVITY” value in assay [3] (Table 7) is 0.59.

With “Leu4ile11peptide 3(3-12)[MCP-1]: leu4ile11 variant of peptide 3(3-12)[MCP-1] (CLDPKKEWIQ)”, the “affinity relative to peptide 3(1-12)[MCP-1]” value in assay [1] (in words) is on record as “higher affinity peptide analog”.

With KQKWVQ [Peptide 3[7-12]], in assay [1], the “selectivity ratio” value is 1.1 and the “CC SPECIFICITY” value amounted to 1.0. For the same molecule, the “DUFFY SELECTIVITY” value in assay [3] (Table 7) is on record as 2.94. For the same molecule, the “DARC specificity ratio / Duffy selectivity” value in assay [3] (estimated ka for association with DARC divided by the ED50 for biological activity) is “about 3.0”.

Consider TTT [reference compound], for which, in assay [1], the “inhibition … IL-8 and SDF1α, in words” value is given as “None of these significantly inhibited”.

Turning to `CC[C@H](C)[C@H](NC(=O)[C@H](C)NC(=O)[C@H](CC(=O)O)NC(=O)[C@@H]1CCCN1C(=O)[C@H](CCC(N)=O)NC(=O)[C@H](C)N)C(=O)N[C@@H](CC(N)=O)C(=O)N[C@@H](C)C(=O)N1CCC[C@H]1C(=O)N[C@H](C(=O)N[C@H](C(=O)N[C@@H](CS)C(=O)N[C@@H](CS)C(=O)O)[C@@H](C)O)C(C)C` [Peptide 1] (H-AQPDAINAPVTCC-OH), in assay [3], the Kd was > 100 µM.

With EICADP [Peptide 3[1-6]], the “CC SPECIFICITY” value in assay [1] came out at 0.7.

As to EICLDPKQKWIQ [Leu4ile11peptide 3], in assay [1], the “potency as an inhibitor of CC chemokines relative to peptide 3(1-12)[MCP-1]” value is on record as “approximately 5 fold”, the “selectivity ratio” value is listed as 2.0 and the “CC SPECIFICITY” value is reported as 2.0. Further, in assay [3], the “DARC binding, in words” value is “essentially no DARC binding capacity”. In assay [4], the “concentrations inhibiting MCP1 induced migration” value was “around 1 μM”, the “potency as an inhibitor of MCP-1 signaling relative to peptide 3(1-12)[MCP-1]” value is given as “approximately 5 fold” and the IC50 is 1 to 5 µM.

Turning to APG [reference compound], the “inhibition … IL-8 and SDF1α, in words” value in assay [1] is reported as “None of these significantly inhibited”.

Turning to `NCCCC[C@H](NC(=O)[C@H](CCC(N)=O)NC(=O)[C@@H](N)CCCCN)C(=O)O` [KQK], the equilibrium dissociation constant (Kd) in assay [3] was > 50 µM.

Take EICLDPKQKWVQ [Leu4peptide 3]: in assay [1], the “increase in potency as an inhibitor of CXC chemokines compared with peptide 3(1-12)[MCP-1]” value is recorded as “approximately 4 fold”, the “selectivity ratio” value came to 0.37 and the “CC SPECIFICITY” value is 0.4.
